Experimental data from patent publication US9387186B2, “Thiourea derivatives” (priority 2014, dated 2016).
Like-named read-outs stand apart in the source and are kept apart here.

Tests used:
Type in all cases: cell-based, Staphylococcus aureus
EMRSA-17 [1] = assay: Reversal of multi-drug resistance (MIC / FIC, Alamar blue)
Experimental: (§1) Fixed concentration of compounds I and II and increasing concentration of antibiotics (drugs) were made in 96-well plates. 5×10^5 multidrug resistant S. aureus cells were added in each well and incubated for 20-24 hours. No test compounds and antibiotics were present in control wells Inhibition and growth were noted both visually and by using the dye Alamar blue. FIC of Antibiotic a (FICa)=MIC of Antibiotic a in combination/MIC of Antibiotic a alone FIC of Compound b (FICb)=MIC of Compound b in combination/MIC of Compound b alone
(§2) The sum of Fractional Inhibitory Concentration (FICs) index of (FICa)+(FICb)=(FICs). Fractional inhibitory concentrations were calculated by the above cited formula. (The FIC values of compounds I and II are available (FIGS. 4A and 4B). Protocol of Chung et al. (2011), with slight modifications, was followed for above discussed reversal resistance assay.

Clinical Isolates = assay: High throughput screening assay (MABA) against MDR S. aureus; details: for activity in MABA (in words): summary of Table 1
Experimental: (§3) In growth medium (Muller Hinton broth), the pure isolated colonies were inoculated and incubated at 37° C. for 20-24 hours. After 20-24 hours, the turbidity was checked and adjusted to 0.5 McFarland standards.
(§4) For this assay, the stock solutions of 1 mg/mL concentration of compounds (I and II) were made by using DMSO. 96-Wells sterile, flat bottom micro titer plates were used with proper labeling, 20 μg/mL of both compounds were added in first wells and made two fold serial dilutions by using sterile broth. The cells suspensions (conc. 5×10^5) were then added in each wells, finally the volume was made up with broth up to 200 μL in each well. The plate was sealed and incubated at 37° C. for 20-24 hours. Experiments were carried out in triplicate manner. After incubation of 20-24 hours, Alamar Blue Dye was added (10%) to the culture volume and kept the plates on shaking incubator at 37° C. for 3 to 4 hours. Change in color was then assessed visually and qualitatively. Quantitative analysis was recorded by taking absorbance at 570 and 600 nm by a spectrophotometer.
(§5) The above mentioned protocol was followed by the method reported by Sarkar et al., (2007) with slight modifications.
(§6) Percentage reduction and inhibition of Alamar blue dye was calculated by using the following formulas:
(§7) [formula] Where, • εox=molar extinction coefficient of Alamar blue oxidized form (blue) • εred=molar extinction coefficient of Alamar blue reduced form (pink) • A=absorbance of test wells • A′=absorbance of negative control well • λ1=570 nm • λ2=600 nm
(§8) Here control wells contain only media plus Alamar Blue, while the test wells contain both Alamar Blue with the test compounds.
(§9) [formula] Where, • εox=molar extinction coefficient of Alamar blue oxidized form (blue) • A=absorbance of test wells • A°=absorbance of positive growth control well • λ1=570 nm • λ2=600 nm
(§10) Here control wells contain cells+media+Alamar Blue, while the test wells contain both Alamar Blue with the test compounds+cells (The percent inhibitions are available in Table 1).

EMRSA-16 [2] = assay: as above; details: for activity in MABA (in words): summary of Table 1
Experimental: as §3, §4, §5, §6, §7, §8, §9, §10

EMRSA-17 [3] = assay: as above; details: for activity in MABA (in words): summary of Table 1
Experimental: as §3, §4, §5, §6, §7, §8, §9, §10

MRSA 252 = assay: as above; details: for activity in MABA (in words): summary of Table 1
Experimental: as §3, §4, §5, §6, §7, §8, §9, §10

EMRSA-16 [4] = assay: Reversal of multi-drug resistance (MIC / FIC, Alamar blue); details: for MIC of antibiotic in combination: antibiotic in combination of compounds I and II
Experimental: as §1, §2

EMRSA-16 and -17 [5] = assay: Membrane potential and integrity, DiBAC4(3) flow cytometry; details: 20 μg/mL, 20-24 h; DiBAC4(3) fluorescence FL1
Experimental: 20 μg/mL of compounds I and II were tested against 5×10^5 multidrug resistant S. aureus cells and incubated for 20-24 hours, while cells without compounds were taken as a control. Stock solution (1 mg/mL) for the membrane potential probe DiBAC4(3) was made in absolute ethanol and stored at −20° C. 1 mL of exponentially growing S. aureus were taken from broth cultures and centrifuged at 11,000 rpm for 2 mins Supernatant was discarded and cells pallets were dissolved in 4 mL of filtered phosphate-buffered saline (PBS). Final 10 μg/mL conc. of fluorogenic substrates DiBAC4 were adjusted in 4 mL volume. The stained cell suspension was incubated at 37° C. for 30 min. Before flow cytometric analysis, cells were washed in PBS buffer by centrifugation. The above mentioned protocol was adapted from the procedures of Jepras et al. (1997) with slight modifications. Assays were performed by using Becton Dickinson FACSCaliber™ flow cytometer (USA). A total of 50,000 cells were counted by using Cell Quest software (BD) for data acquisition and analysis. DiBAC4(3) was detected as green fluorescence in the channel FL1 (Veal et al., 2000).

EMRSA-16 and -17 [6] = assay: Inhibition of MDR efflux pumps, EtBr accumulation flow cytometry; details: combinations with antibiotics, 3 hrs; FL-2 channel
Experimental: Assay Protocol: Different combinations of compounds I and II with antibiotics, and antibiotic alone, were made and incubated with bacterial cells for 3 hrs. After incubation cells were stained with ethidium bromide. Both the control and treated cells were centrifuged for 3 mins at 13,000 rpm. The pallet was washed with PBS. Negative control was free from ethidium bromide (EtBr), while positive control contains (EtBr). By using FL2 channel, FACS analyses were carried out. Protocol of Kalle et al. (2009) was employed with some modifications.
Flow cytometry data acquisition: For data acquisition and analysis Cell Quest software (BD) were used. A total number of 50,000 cells were counted. EtBr fluorescence was detected through (FL-2 channel).

EMRSA-16 and -17 [7] = assay: Reactive oxygen species (O2-) production, lucigenin CL assay; details: 25, 50 and 100 μg/mL; lucigenin chemiluminescence
Experimental: Assay Protocol: 5×10^5 Cells were incubated with the different concentrations of compounds (25, 50 and 100. μg/mL), leucigenin and filtered phosphate buffer saline. For the triggering of reaction, DMSO was added to the each well at the time of RLU determination. No test compounds were added in positive control but it contained DMSO, while no test compound and DMSO were added in negative control. Chemiluminescence (CL) was determined at room temperature by luminometer. The light emission results were measured in relative light unit (RLU). Protocol of above discussed protocol was followed by the method of Albesa et al (2002) with slight modifications.

[8] = Staphylococcus aureus, EMRSA-17, substance alone, read-out: MIC
[9] = Staphylococcus aureus, 20 μg/mL, Alamar blue, 20-24 h

Cc1cc(NS(=O)(=O)c2ccc(N)cc2)no1 [sulfamethoxazole]
interaction of antibiotic with compounds (FIC) (EMRSA-17 [1]; EMRSA-17, with both compounds I and II): indifference effect
MIC (EMRSA-17 [1]; [8]): 2080 µg/mL

COc1cccc(NC(=S)Nc2cccc(Cl)c2)c1 [II, N-(3-Chlorophenyl)-N-(3methoxyphenyl) thiourea]
inhibition at 20 µg/mL (Clinical Isolates; [9]): 19.6%
activity in MABA (in words) (EMRSA-16 [2]; 20 μg/mL): active
inhibition at 20 µg/mL (EMRSA-16 [2]; [9]): 50.1%
activity in MABA (in words) (EMRSA-17 [3]; 20 μg/mL): active
inhibition at 20 µg/mL (EMRSA-17 [3]; [9]): 82.6%
inhibition at 20 µg/mL (MRSA 252; [9]): 14.8%
MIC (EMRSA-16 [4]; Staphylococcus aureus, substance alone): 52 µg/mL
MIC (EMRSA-17 [1]; [8]): 25 µg/mL
effect on membrane potential and integrity (EMRSA-16 and -17 [5]): depolarization and the disruption of cytoplasmic membrane
inhibition of efflux pump (EtBr accumulation) (EMRSA-16 and -17 [6]): excellent capacity to inhibit the bacterial efflux pump mechanism
production of reactive oxygen species (O2-) (EMRSA-16 and -17 [7]): generation of O2^− in MDR cells were detected

O=C(O)c1cn(C2CC2)c2cc(N3CCNCC3)c(F)cc2c1=O [ciprofloxacin]
MIC of antibiotic in combination (EMRSA-16 [4]): 4 µg/mL

NCC[C@H](O)C(=O)N[C@@H]1C[C@H](N)[C@@H](O[C@H]2O[C@H](CN)[C@@H](O)[C@H](O)[C@H]2O)[C@H](O)[C@H]1O[C@H]1O[C@H](CO)[C@@H](O)[C@H](N)[C@H]1O [amikacin]
MIC of antibiotic in combination (EMRSA-16 [4]): 4 µg/mL
MIC (EMRSA-17 [1]; Staphylococcus aureus): 256 µg/mL

gentamicin
MIC of antibiotic in combination (EMRSA-16 [4]): 8 µg/mL
MIC (EMRSA-17 [1]; EMRSA-17, substance alone): 1024 µg/mL

NC(N)=O [Urea, Carbamide, carbonyl diamide, carbonyldiamine, Diaminomethanal]
% Inhibition 20 μg/mL Clinical Isolates (Clinical Isolates; 20 μg/mL, Alamar blue, 20-24 h): No Inhibition
activity in MABA (in words) (Clinical Isolates): resistant
activity in MABA (in words) (EMRSA-16 [2]; 20 μg/mL): resistant
% Inhibition 20 μg/mL EMRSA-16 (EMRSA-16 [2]; Alamar blue, 20-24 h): No Inhibition
activity in MABA (in words) (EMRSA-17 [3]; 20 μg/mL): resistant
% Inhibition 20 μg/mL EMRSA-17 (EMRSA-17 [3]; Alamar blue, 20-24 h): No Inhibition
% Inhibition 20 μg/mL MRSA 252 (MRSA 252; 20 μg/mL, Alamar blue, 20-24 h): No Inhibition
activity in MABA (in words) (MRSA 252): resistant

Cc1onc(-c2ccccc2)c1C(=O)N[C@@H]1C(=O)N2[C@@H]1SC(C)(C)[C@@H]2C(=O)O [oxacillin]
MIC of antibiotic in combination (EMRSA-16 [4]): 16 µg/mL
MIC (EMRSA-17 [1]; [8]): 2050 µg/mL

neomycin
MIC of antibiotic in combination (EMRSA-16 [4]): 8 µg/mL
MIC (EMRSA-17 [1]; EMRSA-17, substance alone): 512 µg/mL

CCC[C@@H]1C[C@@H](C(=O)N[C@@H]([C@H]2O[C@H](SC)[C@H](O)[C@@H](O)[C@H]2O)[C@H](C)Cl)N(C)C1 [clindamycin]
MIC of antibiotic in combination (EMRSA-16 [4]): 32 µg/mL
MIC (EMRSA-17 [1]; [8]): 4100 µg/mL

penicillin
MIC of antibiotic in combination (EMRSA-16 [4]): 8 µg/mL
MIC (EMRSA-17 [1]; EMRSA-17, substance alone): 1024 µg/mL

O=C(N[C@H](CO)[C@H](O)c1ccc([N+](=O)[O-])cc1)C(Cl)Cl [chloramphenicol]
MIC of antibiotic in combination (EMRSA-16 [4]): 16 µg/mL

Thiocarbamide [Thiourea]
% Inhibition 20 μg/mL Clinical Isolates (Clinical Isolates; 20 μg/mL, Alamar blue, 20-24 h): No Inhibition
activity in MABA (in words) (Clinical Isolates): resistant
activity in MABA (in words) (EMRSA-16 [2]; 20 μg/mL): resistant
% Inhibition 20 μg/mL EMRSA-16 (EMRSA-16 [2]; Alamar blue, 20-24 h): No Inhibition
activity in MABA (in words) (EMRSA-17 [3]; 20 μg/mL): resistant
% Inhibition 20 μg/mL EMRSA-17 (EMRSA-17 [3]; Alamar blue, 20-24 h): No Inhibition
% Inhibition 20 μg/mL MRSA 252 (MRSA 252; 20 μg/mL, Alamar blue, 20-24 h): No Inhibition
activity in MABA (in words) (MRSA 252): resistant
